For data set [1], the target named is Glutamate NMDA receptor (Rattus norvegicus) (UniProt P35439+Q00959+Q00960+Q00961+Q62645+Q8VHN2+Q9R1M7). The data set is described as follows: Displacement of [3H]MK801 from NMDA receptor in Sprague-Dawley rat cerebral cortex membrane at 50 umol by liquid scintillation counting. It counts as tissue-based. A general note: Loss of bound radioactivity is the signal in a displacement assay; it reports binding, not function.

Data set [2] has as its system Rattus norvegicus. The data set is described as follows: Induction of hypnotic activity in iv dosed Sprague-Dawley rat assessed as loss of righting reflex. It counts as functional.
Data set [3] is described as follows: Toxicity in Sprague-Dawley rat assessed as motor coordination by rotarod test. It counts as organism-based. As to conditions: in vivo.
Data set [4] is described as follows: Therapeutic index, ratio of […] for Sprague-Dawley rat by rotarod test to HD50 for hypnotic activity in iv dosed Sprague-Dawley rat. Conditions: in vivo, read-out: TI. It counts as organism-based. A general note: The rotarod test checks motor coordination on a turning rod.
Data set [5] relates to Rattus norvegicus. The data set is described as follows: Induction of hypnotic activity in iv dosed Sprague-Dawley rat assessed as time duration of loss of righting reflex. It counts as functional.
In data set [6] the test system is Rattus norvegicus. The data set is described as follows: Induction of hypnotic activity in iv dosed Sprague-Dawley rat assessed as reflex depression 10 secs following injection. It counts as functional, organism-based.
In data set [7] the test system is Rattus norvegicus. The data set is described as follows: Induction of hypnotic activity in iv dosed Sprague-Dawley rat assessed as reflex depression 20 secs following injection. It counts as functional, organism-based.
Data set [8] relates to Rattus norvegicus. The data set is described as follows: Induction of hypnotic activity in iv dosed Sprague-Dawley rat assessed as reflex depression 180 secs following injection. It counts as functional, organism-based.
The test system of data set [9] is Rattus norvegicus. In words: Induction of hypnotic activity in Sprague-Dawley rat assessed as recovery time to walking at 5.6 mg/kg/min after 20 mins to 3 hrs. It counts as functional, organism-based.
Data set [10] has as its system Rattus norvegicus. In words: Induction of hypnotic activity in iv dosed Sprague-Dawley rat assessed as reflex depression 30 secs following injection. It counts as functional, organism-based.
For data set [11], the system named is Rattus norvegicus. In words: Induction of hypnotic activity in iv dosed Sprague-Dawley rat assessed as reflex depression 60 secs following injection. It counts as functional, organism-based.
Data set [12] concerns Rattus norvegicus. In words: Induction of hypnotic activity in iv dosed Sprague-Dawley rat assessed as reflex depression 120 secs following injection. It counts as functional, organism-based.

The source made the active and inactive calls. No cut-off for these calls is given here.

Consider `CCCOC(=O)Cc1ccc(OCC(=O)N(CC)CC)c(OCC)c1` [AZD-3043], for which the result in [1] was inactive. Also, the HD50 in the data set on Rattus norvegicus [2] worked out at 7.9 mg/kg. In addition, in [3], the TD50 – broadly, the dose at which the toxic effect under study appears in half of the subjects – is 82.8 mg/kg. In data set [4], the selectivity ratio is 10.1. For the same compound, in the data set on Rattus norvegicus [5], the Time is recorded as 74.2 s. The outcome in the data set with Rattus norvegicus [6] and in the data set on Rattus norvegicus [7] was Active.
With `CCOC(=O)Cc1cc(OCC)c(OCC(=O)N(CC)CC)cc1F`, the outcome in the data set with Rattus norvegicus [8], in the data set on Rattus norvegicus [7], with Rattus norvegicus [10], in the data set with Rattus norvegicus [11] and in the data set on Rattus norvegicus [12] was Active. This compound also had an Activity in data set [1] of 56.6%. The HD50 in the data set with Rattus norvegicus [2] stood at 5.6 mg/kg. For the same compound, the TD50 in [3] worked out at 74.5 mg/kg. Besides, the selectivity ratio in data set [4] worked out at 14.4. For the same compound, the Time in the data set on Rattus norvegicus [5] is given as 209.6 s. Moreover, the result in the data set with Rattus norvegicus [9] and in the data set with Rattus norvegicus [6] was inactive.
